Assay results as given in PubChem BioAssay AID1918991 (Molecular Pharmacology Branch, DTP, NCI, 2023).
One block for each compound: values may come before it.

Test system: 186277-243-T-J2-PDC complex spheroid growth
Assay: Anticancer human tumor 186277-243-T-J2-PDC patient-derived colon adenocarcinoma cell line growth inhibition [AhR]
Settings: for IC50: curve of first compound; for viability, T/C: stronger effect = lower value
Method in brief: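 Agents were dosed in half-log steps down from roughly clinical Cmax, or from 10 microM where Cmax was unknown, alone and with AhR antagonists. Read-out: percent test/control growth of tumor spheroids containing HUVEC and MSC stromal cells.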

[1] = second compound 0.1 µM, first compound 0.0316 µM
[2] = second compound 0.1 µM, first compound 0.1 µM
[3] = second compound 0.1 µM, first compound 0.316 µM
[4] = second compound 0.1 µM, first compound 1 µM
[5] = second compound 0.1 µM, first compound 3.16 µM
[6] = second compound 0.1 µM, first compound 10 µM
[7] = second compound 0.316 µM, first compound 0.0316 µM
[8] = second compound 0.316 µM, first compound 0.1 µM
[9] = second compound 0.316 µM, first compound 0.316 µM
[10] = second compound 0.316 µM, first compound 1 µM
[11] = second compound 0.316 µM, first compound 3.16 µM
[12] = second compound 0.316 µM, first compound 10 µM
[13] = second compound 1 µM, first compound 0.0316 µM
[14] = second compound 1 µM, first compound 0.1 µM
[15] = second compound 1 µM, first compound 0.316 µM
[16] = second compound 1 µM, first compound 1 µM
[17] = second compound 1 µM, first compound 3.16 µM
[18] = second compound 1 µM, first compound 10 µM
[19] = second compound 3.16 µM, first compound 0.0316 µM
[20] = second compound 3.16 µM, first compound 0.1 µM
[21] = second compound 3.16 µM, first compound 0.316 µM
[22] = second compound 3.16 µM, first compound 1 µM
[23] = second compound 3.16 µM, first compound 3.16 µM
[24] = second compound 3.16 µM, first compound 10 µM
[25] = second compound 10 µM, first compound 0.0316 µM
[26] = second compound 10 µM, first compound 0.1 µM
[27] = second compound 10 µM, first compound 0.316 µM
[28] = second compound 10 µM, first compound 1 µM
[29] = second compound 10 µM, first compound 3.16 µM
[30] = second compound 10 µM, first compound 10 µM
[31] = second compound 0.1 µM, first compound 0.00316 µM
[32] = second compound 0.1 µM, first compound 0.01 µM
[33] = second compound 0.316 µM, first compound 0.00316 µM
[34] = second compound 0.316 µM, first compound 0.01 µM
[35] = second compound 1 µM, first compound 0.00316 µM
[36] = second compound 1 µM, first compound 0.01 µM
[37] = second compound 3.16 µM, first compound 0.00316 µM
[38] = second compound 3.16 µM, first compound 0.01 µM
[39] = second compound 10 µM, first compound 0.00316 µM
[40] = second compound 10 µM, first compound 0.01 µM
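Also: spheroids exposed to compounds for seven days before the viability read.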
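For viability, T/C in this document: luminescent signal used as a stand-in for viable cell amount; 100% = DMSO vehicle control wells.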

SMILES: CC(C)c1c(-c2ccccc2)nc2c(C#N)c[nH]n2c1=O + CC(CO)NC(=O)c1cc(-c2ccc(Cl)cc2)nn(-c2cnn(C)c2)c1=O
- IC50 (second compound 0.1 µM): > 10000 nM
- IC50 (second compound 0.316 µM): > 10000 nM
- IC50 (second compound 1 µM): > 10000 nM
- IC50 (second compound 3.16 µM): > 10000 nM
- IC50 (second compound 10 µM): > 10000 nM
- viability, T/C [1]: 95.2%
- viability, T/C [2]: 93.5%
- viability, T/C [3]: 88.4%
- viability, T/C [4]: 95.5%
- viability, T/C [5]: 89.5%
- viability, T/C [6]: 79.6%
- viability, T/C [7]: 99.5%
- viability, T/C [8]: 100%
- viability, T/C [9]: 109%
- viability, T/C [10]: 92.9%
- viability, T/C [11]: 99.2%
- viability, T/C [12]: 91.7%
- viability, T/C [13]: 104%
- viability, T/C [14]: 113%
- viability, T/C [15]: 105%
- viability, T/C [16]: 104%
- viability, T/C [17]: 86.4%
- viability, T/C [18]: 93.8%
- viability, T/C [19]: 92.2%
- viability, T/C [20]: 85.1%
- viability, T/C [21]: 91.9%
- viability, T/C [22]: 89.8%
- viability, T/C [23]: 87.3%
- viability, T/C [24]: 95%
- viability, T/C [25]: 90.2%
- viability, T/C [26]: 85.1%
- viability, T/C [27]: 81.8%
- viability, T/C [28]: 85.5%
- viability, T/C [29]: 76.9%
- viability, T/C [30]: 87.3%

SMILES: CC[C@@]1(O)C(=O)OCc2c1cc1n(c2=O)Cc2cc3c(CN(C)C)c(O)ccc3nc2-1 + Cc1ccccc1N=Nc1ccc(NC(=O)c2ccnn2C)c(C)c1
- IC50 (second compound 0.1 µM): > 100 nM
- IC50 (second compound 0.316 µM): > 100 nM
- IC50 (second compound 1 µM): > 100 nM
- IC50 (second compound 3.16 µM): > 100 nM
- IC50 (second compound 10 µM): > 100 nM
- viability, T/C (second compound 0.1 µM, first compound 0.000316 µM): 97.7%
- viability, T/C (second compound 0.1 µM, first compound 0.001 µM): 113%
- viability, T/C [31]: 107%
- viability, T/C [32]: 133%
- viability, T/C [1]: 119%
- viability, T/C [2]: 113%
- viability, T/C (second compound 0.316 µM, first compound 0.000316 µM): 113%
- viability, T/C (second compound 0.316 µM, first compound 0.001 µM): 101%
- viability, T/C [33]: 113%
- viability, T/C [34]: 115%
- viability, T/C [7]: 114%
- viability, T/C [8]: 105%
- viability, T/C (second compound 1 µM, first compound 0.000316 µM): 97.8%
- viability, T/C (second compound 1 µM, first compound 0.001 µM): 103%
- viability, T/C [35]: 110%
- viability, T/C [36]: 123%
- viability, T/C [13]: 116%
- viability, T/C [14]: 119%
- viability, T/C (second compound 3.16 µM, first compound 0.000316 µM): 94.9%
- viability, T/C (second compound 3.16 µM, first compound 0.001 µM): 92.9%
- viability, T/C [37]: 116%
- viability, T/C [38]: 135%
- viability, T/C [19]: 107%
- viability, T/C [20]: 104%
- viability, T/C (second compound 10 µM, first compound 0.000316 µM): 81.8%
- viability, T/C (second compound 10 µM, first compound 0.001 µM): 92.2%
- viability, T/C [39]: 98.1%
- viability, T/C [40]: 117%
- viability, T/C [25]: 90.5%
- viability, T/C [26]: 99.3%

SMILES: Nc1ncn(C2CC(O)C(CO)O2)c(=O)n1 (stereo not given) + Cc1ccccc1N=Nc1ccc(NC(=O)c2ccnn2C)c(C)c1
- IC50 (second compound 0.1 µM): > 1000 nM
- IC50 (second compound 0.316 µM): > 1000 nM
- IC50 (second compound 1 µM): > 1000 nM
- IC50 (second compound 3.16 µM): > 1000 nM
- IC50 (second compound 10 µM): > 1000 nM
- viability, T/C [31]: 115%
- viability, T/C [32]: 108%
- viability, T/C [1]: 105%
- viability, T/C [2]: 112%
- viability, T/C [3]: 103%
- viability, T/C [4]: 143%
- viability, T/C [33]: 118%
- viability, T/C [34]: 96.8%
- viability, T/C [7]: 108%
- viability, T/C [8]: 115%
- viability, T/C [9]: 120%
- viability, T/C [10]: 144%
- viability, T/C [35]: 100%
- viability, T/C [36]: 102%
- viability, T/C [13]: 102%
- viability, T/C [14]: 128%
- viability, T/C [15]: 119%
- viability, T/C [16]: 144%
- viability, T/C [37]: 103%
- viability, T/C [38]: 128%
- viability, T/C [19]: 101%
- viability, T/C [20]: 105%
- viability, T/C [21]: 113%
- viability, T/C [22]: 122%
- viability, T/C [39]: 90.2%
- viability, T/C [40]: 97.2%
- viability, T/C [25]: 103%
- viability, T/C [26]: 109%
- viability, T/C [27]: 104%
- viability, T/C [28]: 103%

Further lines, with some results ahead:

- IC50 (second compound 0.1 µM): 8920 nM
- IC50 (second compound 0.316 µM): 7740 nM
- IC50 (second compound 1 µM): 7570 nM
- IC50 (second compound 3.16 µM): 7220 nM
- IC50 (second compound 10 µM): 7390 nM
SMILES: COc1cc(C2c3cc4c(cc3C(OC3OC5COC(C)OC5C(O)C3O)C3COC(=O)C23)OCO4)cc(OC)c1O (stereo not given) + Cc1ccccc1N=Nc1ccc(NC(=O)c2ccnn2C)c(C)c1
- viability, T/C [1]: 87.1%
- viability, T/C [2]: 103%
- viability, T/C [3]: 142%
- viability, T/C [4]: 99.7%
- viability, T/C [5]: 81%
- viability, T/C [6]: 46.5%
- viability, T/C [7]: 98.5%
- viability, T/C [8]: 117%
- viability, T/C [9]: 145%
- viability, T/C [10]: 96.1%
- viability, T/C [11]: 78.6%
- viability, T/C [12]: 42%
- viability, T/C [13]: 113%
- viability, T/C [14]: 124%
- viability, T/C [15]: 144%
- viability, T/C [16]: 93.6%
- viability, T/C [17]: 76.2%
- viability, T/C [18]: 41.7%
- viability, T/C [19]: 94.8%
- viability, T/C [20]: 106%
- viability, T/C [21]: 137%
- viability, T/C [22]: 94.6%
- viability, T/C [23]: 72.8%
- viability, T/C [24]: 41.2%
- viability, T/C [25]: 102%
- viability, T/C [26]: 104%
- viability, T/C [27]: 118%
- viability, T/C [28]: 93.6%
- viability, T/C [29]: 71.7%
- viability, T/C [30]: 42.4%

- IC50 (second compound 0.1 µM): 456 nM
- IC50 (second compound 0.316 µM): 446 nM
- IC50 (second compound 1 µM): 487 nM
- IC50 (second compound 3.16 µM): 463 nM
- IC50 (second compound 10 µM): 440 nM
SMILES: COc1cccc2c1C(=O)c1c(O)c3c(c(O)c1C2=O)CC(O)(C(=O)CO)CC3OC1CC(N)C(O)C(C)O1 (stereo not given) + Cc1ccccc1N=Nc1ccc(NC(=O)c2ccnn2C)c(C)c1
- viability, T/C [1]: 158%
- viability, T/C [2]: 147%
- viability, T/C [3]: 71%
- viability, T/C [4]: 4.6%
- viability, T/C [5]: 0.4%
- viability, T/C [6]: 0.61%
- viability, T/C [7]: 161%
- viability, T/C [8]: 138%
- viability, T/C [9]: 70%
- viability, T/C [10]: 4.18%
- viability, T/C [11]: 0.3%
- viability, T/C [12]: 1.25%
- viability, T/C [13]: 161%
- viability, T/C [14]: 136%
- viability, T/C [15]: 77.1%
- viability, T/C [16]: 4.8%
- viability, T/C [17]: 0.42%
- viability, T/C [18]: 0.91%
- viability, T/C [19]: 152%
- viability, T/C [20]: 133%
- viability, T/C [21]: 72.9%
- viability, T/C [22]: 3.91%
- viability, T/C [23]: 0.08%
- viability, T/C [24]: 1.27%
- viability, T/C [25]: 131%
- viability, T/C [26]: 120%
- viability, T/C [27]: 68.9%
- viability, T/C [28]: 2.85%
- viability, T/C [29]: 0.25%
- viability, T/C [30]: 0.52%

- IC50 (second compound 0.1 µM): < 31.6 nM
- IC50 (second compound 0.316 µM): < 31.6 nM
- IC50 (second compound 1 µM): < 31.6 nM
- IC50 (second compound 3.16 µM): < 31.6 nM
- IC50 (second compound 10 µM): < 31.6 nM
SMILES: Nc1ccn(C2OC(CO)C(O)C2(F)F)c(=O)n1 (stereo not given) + Cc1ccccc1N=Nc1ccc(NC(=O)c2ccnn2C)c(C)c1
- viability, T/C [1]: 16.6%
- viability, T/C [2]: 15.3%
- viability, T/C [3]: 14.9%
- viability, T/C [4]: 16.3%
- viability, T/C [5]: 18.7%
- viability, T/C [6]: 17.1%
- viability, T/C [7]: 14.9%
- viability, T/C [8]: 14.5%
- viability, T/C [9]: 16.5%
- viability, T/C [10]: 18%
- viability, T/C [11]: 17.4%
- viability, T/C [12]: 17.4%
- viability, T/C [13]: 16%
- viability, T/C [14]: 16%
- viability, T/C [15]: 16.4%
- viability, T/C [16]: 17%
- viability, T/C [17]: 18.3%
- viability, T/C [18]: 19.4%
- viability, T/C [19]: 14.6%
- viability, T/C [20]: 13%
- viability, T/C [21]: 15.7%
- viability, T/C [22]: 15.3%
- viability, T/C [23]: 17.1%
- viability, T/C [24]: 17.1%
- viability, T/C [25]: 16%
- viability, T/C [26]: 15.9%
- viability, T/C [27]: 16.6%
- viability, T/C [28]: 17.8%
- viability, T/C [29]: 18%
- viability, T/C [30]: 18.8%
